Test results as given in article PMC7534374 (Journal of Enzyme Inhibition and Medicinal Chemistry, 2020).

How the values were obtained:
[1] = molecular target: T1, yeast glutathione reductase (yGR) (Saccharomyces cerevisiae, UniProt P41921); assay: LC-MS/MS of covalent adduct; format: biochemical; settings: read-out: Ki
T1 sequence (P41921 1-483): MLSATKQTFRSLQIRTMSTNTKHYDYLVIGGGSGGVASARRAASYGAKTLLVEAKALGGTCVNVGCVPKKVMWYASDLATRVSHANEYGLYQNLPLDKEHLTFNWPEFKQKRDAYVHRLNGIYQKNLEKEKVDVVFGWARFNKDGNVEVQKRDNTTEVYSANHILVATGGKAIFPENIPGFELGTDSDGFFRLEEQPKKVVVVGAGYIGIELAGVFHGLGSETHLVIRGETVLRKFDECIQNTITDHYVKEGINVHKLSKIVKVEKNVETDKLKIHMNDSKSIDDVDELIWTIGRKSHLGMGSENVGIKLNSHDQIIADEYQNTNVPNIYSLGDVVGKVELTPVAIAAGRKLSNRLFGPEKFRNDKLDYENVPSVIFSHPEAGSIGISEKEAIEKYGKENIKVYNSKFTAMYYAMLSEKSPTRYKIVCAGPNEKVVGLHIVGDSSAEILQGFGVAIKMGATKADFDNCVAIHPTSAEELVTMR

[2] = molecular target: T2, human glutathione reductase (hGR) (Homo sapiens, UniProt P00390); assay: GR activity assay; format: biochemical
T2 sequence (P00390 44-522): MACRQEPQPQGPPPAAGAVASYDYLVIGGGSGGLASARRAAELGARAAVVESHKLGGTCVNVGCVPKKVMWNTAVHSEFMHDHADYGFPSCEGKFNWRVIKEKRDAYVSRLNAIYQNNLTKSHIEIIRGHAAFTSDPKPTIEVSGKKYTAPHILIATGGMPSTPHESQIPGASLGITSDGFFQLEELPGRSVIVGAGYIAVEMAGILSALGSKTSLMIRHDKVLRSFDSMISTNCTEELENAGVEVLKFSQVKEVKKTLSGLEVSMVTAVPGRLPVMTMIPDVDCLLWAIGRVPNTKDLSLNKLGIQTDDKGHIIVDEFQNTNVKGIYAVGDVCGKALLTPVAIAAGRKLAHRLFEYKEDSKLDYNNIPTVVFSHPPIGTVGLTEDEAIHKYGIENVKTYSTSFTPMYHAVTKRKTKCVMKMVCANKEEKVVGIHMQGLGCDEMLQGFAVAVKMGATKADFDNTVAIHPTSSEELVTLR

Structure (SMILES)	KI (inactivation) [1] [µM]	GR activity assay (NADPH consumption at 340 nm) [2]
S=C=NCc1ccccc1 [BITC, Benzyl isothiocyanate]	260	BITC exerted comparable inhibitory effect against both of yeast and human GRs
S=C=NCCc1ccccc1 [PEITC, Phenethyl isothiocyanate]		both of BITC and PEITC inhibited yeast or human GR in a concentration-dependent manner
